Assay results reported in patent US20240307500A1, “SUSTAINED RELEASE FORMULATION COMPOSITION COMPRISING SEMAGLUTIDE OR PHARMACEUTICALLY ACCEPTABLE SALT THEREOF” (PEPTRON, INC., priority 2021, published 2024).

Tested on: SD rats
Experiment: Oral glucose tolerance test (OGTT), hypoglycemic effects after single SC injection
Type: in vivo
Conditions: single SC 0.123 mpk semaglutide
Description: An oral glucose tolerance test (OGTT) was performed to confirm hypoglycemic effects of the sustained-release microspheres including semaglutide of the present invention. First, the experiment was conducted by dividing 8-week-old SD rats (18 rats; 6 rats in each group) into 3 groups. It was divided into a negative control group (Control), a positive control group (API) and Example 3 formulation administration group (PT403)), wherein the positive control group (API) was subcutaneously injected once with 0.123 mpk of semaglutide, and the Example 3 formulation administration group (PT403) was injected with the Example 3 formulation subcutaneously with 4 mpk.
After drug administration, total 5 OGTTs (Days 1, 7, 16, 21 and 28) were performed, and 2 g/kg of glucose was orally administered to SD rats fasted for 18 hours. Immediately after glucose administration, and after 15, 30, 60, 90, 120, and 180 minutes, blood was collected from the tail to measure blood glucose.

## N^6,26-{18-[N-(17-carboxyheptadecanoyl)-L-γ-glutamyl]-10-oxo-3, 6, 12, 15-tetraoxa-9, 18-diazaoctadecanoyl}-[8-(2-amino-2-propanoic acid), 34-L-arginine] human glucan-like peptide 1 (7-37) [API]
  hypoglycemic effects (in words): returned to normal on the 7th day
